From US20090028925A1, “Novel Phosphinic Acid-Containing Thyromimetics” (priority 2005, published 2009) come the findings set out here.

The target in series [1] is T1, human thyroid hormone receptors TRα1 (Homo sapiens, UniProt P10827).
T1 construct: made in house; host or cells: Sf9 insect cells (baculovirus)
T1 sequence (P10827 1-410 isoform P10827-2): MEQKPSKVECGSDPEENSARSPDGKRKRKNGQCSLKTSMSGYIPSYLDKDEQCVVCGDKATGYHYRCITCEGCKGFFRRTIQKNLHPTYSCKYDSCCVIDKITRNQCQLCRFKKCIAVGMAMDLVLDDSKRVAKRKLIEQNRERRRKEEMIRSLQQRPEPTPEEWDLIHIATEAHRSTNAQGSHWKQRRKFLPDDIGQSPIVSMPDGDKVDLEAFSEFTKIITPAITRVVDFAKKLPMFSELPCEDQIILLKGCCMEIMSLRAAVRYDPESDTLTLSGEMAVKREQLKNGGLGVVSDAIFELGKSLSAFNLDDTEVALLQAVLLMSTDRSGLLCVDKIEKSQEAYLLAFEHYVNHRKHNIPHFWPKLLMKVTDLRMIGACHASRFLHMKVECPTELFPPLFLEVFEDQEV
T1 sequence (P19793 1-462 partner): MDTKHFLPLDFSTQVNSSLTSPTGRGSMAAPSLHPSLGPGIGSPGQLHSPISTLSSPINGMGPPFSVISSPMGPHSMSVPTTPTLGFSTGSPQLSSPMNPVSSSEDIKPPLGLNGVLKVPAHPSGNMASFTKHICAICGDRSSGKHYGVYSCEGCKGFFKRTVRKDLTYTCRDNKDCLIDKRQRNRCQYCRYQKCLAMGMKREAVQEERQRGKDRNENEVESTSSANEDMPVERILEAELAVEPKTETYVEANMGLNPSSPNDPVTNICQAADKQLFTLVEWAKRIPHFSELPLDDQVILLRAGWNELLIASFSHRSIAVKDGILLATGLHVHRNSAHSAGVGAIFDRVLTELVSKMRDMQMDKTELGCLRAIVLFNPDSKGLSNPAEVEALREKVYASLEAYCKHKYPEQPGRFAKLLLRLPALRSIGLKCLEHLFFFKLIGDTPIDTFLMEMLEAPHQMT
Kind of series: Receptor binding to TRα1 (gel filtration and scintillation proximity assay, labeled T3). Conditions: SPA data; read-out: Ki TRα. A general note: In gel filtration, larger molecules generally elute earlier.

Series [2] addresses T2, human thyroid hormone receptors TRβ1 (Homo sapiens, UniProt P10828).
T2 construct: made in house; host or cells: Sf9 insect cells (baculovirus)
T2 sequence (P10828 1-461): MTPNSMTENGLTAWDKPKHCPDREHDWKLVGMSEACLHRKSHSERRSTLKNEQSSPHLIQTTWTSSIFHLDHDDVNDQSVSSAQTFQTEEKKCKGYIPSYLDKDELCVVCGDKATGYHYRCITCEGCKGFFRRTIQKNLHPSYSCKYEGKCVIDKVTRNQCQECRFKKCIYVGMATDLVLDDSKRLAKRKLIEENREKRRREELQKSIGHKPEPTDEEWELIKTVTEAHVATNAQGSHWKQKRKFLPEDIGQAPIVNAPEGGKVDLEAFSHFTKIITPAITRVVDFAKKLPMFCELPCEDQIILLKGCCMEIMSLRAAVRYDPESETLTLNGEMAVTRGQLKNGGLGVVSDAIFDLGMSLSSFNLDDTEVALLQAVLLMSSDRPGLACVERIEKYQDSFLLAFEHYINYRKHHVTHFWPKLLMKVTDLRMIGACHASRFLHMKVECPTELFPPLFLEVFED
T2 sequence (P19793 1-462 partner): T1 sequence (P19793 1-462 partner)
The series is described as follows: Receptor binding to TRβ1 (gel filtration and scintillation proximity assay, labeled T3). Conditions: SPA data; read-out: Ki TRβ.

Series [3] is described as follows: Tissue distribution and pharmacokinetics following IP administration to normal rats. It counts as in vivo, SD rats. The following applies: 10 mg/kg IP. The text has this:
At pre-selected time points following dosing, the rats were anesthetized using iso-fluorane and the peritoneal cavity was then opened and a blood sample was obtained from the abdominal vena cava. In addition, liver, kidney, and heart were excised and immersed in 3 volumes of cold 60% acetonitrile. The blood samples were briefly centrifuged and the plasma fraction was then extracted with 1.5 volumes of methanol, processed, and analyzed by LC-UV as described in Example G. The frozen liver, kidney, and heart tissue were homogenized in 60% v/v acetonitrile, centrifuged, and then analyzed by LC-UV. Pharmacokinetic parameters and AUC of the plasma and tissue concentration-time profiles were determined noncompartmentally by WinNonLin.

Series [4] has as its system liver triglycerides. Kind of series: Hepatic triglyceride content in normal rats, chronic infusion. It counts as in vivo. Conditions: normal rats chronically infused for 7 days. How it is done: Normal rats were chronically infused with Compound 7 for 7 days. Liver triglycerides were analyzed following lipid extraction by the Bligh Dyer method (Bligh E G and Dyer W J, A rapid method of total lipid extraction and purification. Can J Med. Sci. 1959 (August); 37(8):911-7, incorporated herein by reference). Total triglycerides were analyzed in the liver extracts by an enzymatic assay (Thermo Electron Corporation). Total lipid was normalized to initial liver weight and triglyceride content was normalized to liver weight. […] There was a 4% reduction in liver triglycerides for this group and the results were not statistically significant.

The subject of series [5] is thyroid stimulating hormone (TSH). The series is described as follows: Circulating TSH in mice. It counts as in vivo. The following applies: 10 mg/kg/d for 77 days. The text has this: Another concern with synthetic thyromimetics is the suppression of the endogenous thyroid axis. Thyroid homeostasis is maintained by the action of thyroid releasing hormone (TRH) and thyroid stimulating hormone (TSH). […] Although this particular side effect has been noted, it has typically been treated with less concern than the cardiac safety issues. […] Therefore previous investigators have measured TSH levels when testing synthetic thyromimetics and have used a 30% decrease of TSH as the denominator in their therapeutic index calculations. […] Therefore, both compounds suppress TSH as doses lower than that required to decrease circulating cholesterol. […] However, 0.2 mg/kg/d of Compound 18 in 28 day treated ZDF rats, decreased TSH levels greater than 90%.

Series [6] in a line: Continuous infusion study in rats on a cholesterol-containing diet. The format is in vivo. The following applies: continuous infusion 1 mg/kg/day.
Method: Screening for thyromimetic activity was performed in normal rats maintained on a cholesterol-containing diet. Compounds were administered by continuous infusion using an osmotic pump at 1 mg/kg/day.
Series [7] in a line: Subacute study in cholesterol-fed rats, IP: heart weight and heart mGPDH activity.
Method: The cholesterol-fed rat is an animal model of hypercholesterolemia generated by feeding the animals a diet with high cholesterol content.
Serum cholesterol values were assessed and the animals randomized into groups for treatment.

Usually Ki stands for a dissociation constant, usually derived from enzyme kinetics or from competition with a known ligand. Usually AUC stands for concentration integrated over time. As usually defined, the Cmax is the maximum level reached in the sampled fluid or tissue. A word on the Tmax: it is the time from dosing to the highest level. On to `Cc1cc(OCP(=O)(O)O)cc(C)c1Cc1ccc(O)c(C(C)C)c1` [Compound 7, [3,5-dimethyl-4-(4′-hydroxy-3′-iso-propylbenzyl)phenoxy]methylphosphonic acid], for which, in series [1], the Ki was found to be 58 nM. Also, in series [2], the Ki came out at 3.3 nM. In series [3], the “Heart AUC” value came out at 32.8 nmol·h/g, the “Kidney AUC” value was 5.0 nmol·h/g and the “Liver AUC” value stood at 301.7 nmol·h/g. In addition, in series [3] (male, SD, rat, plasma), the AUC amounted to 31600 ng·h/mL, the Cmax came out at 26000 ng/mL and the Tmax was 20 min. Also, in series [3] (male, SD, rat, plasma, read-out: Cl(observed)/F (converted)), the CL/F is 5.01 mL/min/kg. Moreover, the Vd/F in series [3] (male, SD, rat, plasma, read-out: Vz(observed)/F) was determined as 0.401 L/kg. In series [3] (plasma), the AUMClast turned out to be 33.7098 μg * hr^2/mL and the Tlast turned out to be 4 h. For the same molecule, the “reduction in liver triglycerides” value in series [4] came out at 64%. The “decrease in TSH” value in series [5] is recorded as “no decrease in TSH was observed”. In addition, in series [6] (day 7 and day 14), the cholesterol lowering effects entry is on record as “demonstrated cholesterol lowering effects”. For the same molecule, in series [6] (day 7 or day 14), the “cardiovascular parameters (heart rate, LV dP/dt, systolic and diastolic blood pressure)” value is given as “no changes in any of the cardiovascular parameters”. The cardiac hypertrophy entry in series [7] (IP once-a-day for seven days) is recorded as “No cardiac hypertrophy was observed”. The “therapeutic window between efficacy (cholesterol lowering) and toxicity (cardiac hypertrophy, heart GPDH)” value in series [7] (IP seven days) is listed as 10- to 100 fold. Moreover, the “heart GPDH activity” value in series [7] (IP, 100 mg/kg) is “trend towards increased heart GPDH activity”. The adverse cardiac effects result in series [7] (IP, any dose) was “No adverse cardiac effects were observed”.
